# Test system: MV4:11 human cancer cell lines
# Test: Cellular viability / anti-proliferative activity (CellTiter-Glo)
# Type: cell-based
# Details: MV4-11, 120 h, MV-4-11 cells, 5 day protocol, mean of minimum two replicates, read-out: GI50 on cellular proliferation of MV4:11 human cancer cell lines
# Experimental: Cellular Viability of Human Tumor Cell Lines
# Anti-Proliferative Activity Using MLL-Harboring Cell Lines.
# MV-4-11 and K562 cells are grown in IMDM media supplemented with 10% FBS and […], Molm-13 cells are cultured in RPMI-1640 media supplemented with 10% FBS and 1% o penicillin/streptomycin. Viability assays are performed by dispensing 200 cells at 7200 cells/mL into each well of an opaque 384-well plate and adding compounds at the indicated concentrations in a final volume of 32 μL and a final concentration of DMSO of 0.3% for all samples. A certain range of compound concentrations is made through a series of 2-fold dilutions starting 30 μM at the highest, total 22 dilutions. After a set incubation period, 5 day protocol, the viability of cells in each well is assessed using the CellTiter-Glo assay (Promega), read on a 96 Microplane Luminometer (Cytation 3, BioTek). Serial dilutions of each cell type are performed in all assays to generate standard curves and the final densities of cells are determined within the dynamic range of the instrument. GI50 values are calculated based on XLfit software (IDBS, Guildford, UK) with Sigmoidal Dose-Response Model. Each compound is tested in minimum of two replicates. Data are expressed as mean.
row,Compound,GI50 [µM]
1,"COc1ccnc([C@H](C)N2CCOc3c(cc(Cn4ccnc4C)cc3-c3cc(C)ccc3C)C2=O)c1 [Example 56, (S)-9-(2,5-Dimethylphenyl)-4-(1-(4-methoxypyridin-2-yl)ethyl)-7-((2-methyl-1H-imidazol-1-yl)methyl)-3,4-dihydrobenzo[f][1,4]oxazepin-5(2H)-one]",0.037
2,"COc1cc(Cn2cnc3c(-c4ccc(F)cc4C)cc(Cn4ccc5ccccc54)cc3c2=O)cc(OC)c1 [Example 4, 6-((1H-Indol-1-yl)methyl)-3-(3,5-dimethoxybenzyl)-8-(4-fluoro-2-methylphenyl)quinazolin-4(3H)-one]",> 0.94
3,"Cn1cc(-c2cc(Cn3ccn(C)c3=N)cc3c(=O)n(-c4ccccc4-c4ccccc4)cnc23)c(C(F)(F)F)n1 [Example 24, 3-([1,1′-Biphenyl]-2-yl)-6-((2-imino-3-methyl-2,3-dihydro-1H-imidazol-1-yl)methyl)-8-(1-methyl-3-(trifluoromethyl)-1H-pyrazol-4-yl)quinazolin-4(3H)-one]",9.01
4,"Cc1cc(C)nc(CN2CCOc3c(cc(Cn4ccnc4C)cc3-c3cn(C)nc3C(F)(F)F)C2=O)c1 [Example 26, 4-((4,6-Dimethylpyridin-2-yl)methyl)-7-((2-methyl-1H-imidazol-1-yl)methyl)-9-(1-methyl-3-(trifluoromethyl)-1H-pyrazol-4-yl)-3,4-dihydrobenzo[f][1,4]oxazepin-5(2H)-one]",0.135
5,"COc1cc(CN2CC(=O)Nc3c(cc(Cn4ccn(C)c4=N)cc3-c3ccc(F)cc3C)C2=O)cc(OC)c1 [Example 14, 4-(3,5-Dimethoxybenzyl)-9-(4-fluoro-2-methylphenyl)-7-((2-imino-3-methyl-2,3-dihydro-1H-imidazol-1-yl)methyl)-3,4-dihydro-1H-benzo[e][1,4]diazepine-2,5-dione]",0.167
6,"Cc1cc(C)nc(CN2CCOc3c(cc(Cn4ccnc4C)cc3-c3ccc(F)cc3Cl)C2=O)c1 [Example 48, 9-(2-Chloro-4-fluorophenyl)-4-((4,6-dimethylpyridin-2-yl)methyl)-7-((2-methyl-1H-imidazol-1-yl)methyl)-3,4-dihydrobenzo[f][1,4]oxazepin-5(2H)-one]",0.095
7,"COc1cc(Cn2cnc3c(-c4ccc(F)cc4C)cc(Cn4ccn(C)c4=N)cc3c2=O)cc(OC)c1 [Example 1, 3-(3,5-Dimethoxybenzyl)-8-(4-fluoro-2-methylphenyl)-6-((2-imino-3-methyl-2,3-dihydro-1H-imidazol-1-yl)methyl)quinazolin-4(3H)-one]",0.15
8,"COc1cc(CN2CC(=O)Nc3c(cc(Cn4ccoc4=N)cc3-c3ccc(F)cc3C)C2=O)cc(OC)c1 [Example 30, 4-(3,5-Dimethoxybenzyl)-9-(4-fluoro-2-methylphenyl)-7-((2-iminooxazol-3(2H)-yl)methyl)-3,4-dihydro-1H-benzo[e][1,4]diazepine-2,5-dione]",0.19
9,"COc1cc(CN2CC(=O)Nc3c(cc(Cn4ccnc4C)cc3-c3ccc(F)cc3C)C2=O)cc(OC)c1 [Example 28, 4-(3,5-Dimethoxybenzyl)-9-(4-fluoro-2-methylphenyl)-7-((2-methyl-1H-imidazol-1-yl)methyl)-3,4-dihydro-1H-benzo[e][1,4]diazepine-2,5-dione]",0.232
10,"COc1cc(Cn2cnc3c(-c4ccc(F)cc4C)cc(Cc4c[nH]c5ccccc45)cc3c2=O)cc(OC)c1 [Example 2, 6-((1H-Indol-3-yl)methyl)-3-(3,5-dimethoxybenzyl)-8-(4-fluoro-2-methylphenyl)quinazolin-4(3H)-one]",> 0.94
11,"COc1cc(CN2C[C@@H](C)Oc3c(cc(Cn4ccnc4C)cc3-c3ccc(F)cc3C)C2=O)cc(OC)c1 [Example 34, (R)-4-(3,5-Dimethoxybenzyl)-9-(4-fluoro-2-methylphenyl)-2-methyl-7-((2-methyl-1H-imidazol-1-yl)methyl)-3,4-dihydrobenzo[f][1,4]oxazepin-5(2H)-one]",1.47
12,"Cc1cc(C)nc(CN2CCOc3c(cc(Cn4ccnc4C)cc3-c3sc(C)nc3C)C2=O)c1 [Example 43, 4-((4,6-Dimethylpyridin-2-yl)methyl)-9-(2,4-dimethylthiazol-5-yl)-7-((2-methyl-1H-imidazol-1-yl)methyl)-3,4-dihydrobenzo[f][1,4]oxazepin-5(2H)-one]",0.159
13,"COc1ccc2nc(C)cc(N3CCOc4c(cc(Cn5ccnc5)cc4-c4cn(C)nc4C(F)(F)F)C3=O)c2c1 [Example 68, 7-((1H-imidazol-1-yl)methyl)-4-(6-methoxy-2-methylquinolin-4-yl)-9-(1-methyl-3-(trifluoromethyl)-1H-pyrazol-4-yl)-3,4-dihydrobenzo[f][1,4]oxazepin-5(2H)-one]",0.1
14,"CCn1cc(-c2cc(Cn3ccnc3)cc3c2OCCN([C@H](c2cc(OC)ccn2)C2CC2)C3=O)c(C(F)(F)F)n1 [Example 59, (S)-7-((1H-Imidazol-1-yl)methyl)-4-(cyclopropyl(4-methoxypyridin-2-yl)methyl)-9-(1-ethyl-3-(trifluoromethyl)-1H-pyrazol-4-yl)-3,4-dihydrobenzo[f][1,4]oxazepin-5(2H)-one]",0.108
15,"COc1ccnc([C@H](C)N2CCOc3c(cc(Cn4ccnc4C)cc3-c3ccc(F)cc3C)C2=O)c1 [Example 50, (S)-9-(4-Fluoro-2-methylphenyl)-4-(1-(4-methoxypyridin-2-yl)ethyl)-7-((2-methyl-1H-imidazol-1-yl)methyl)-3,4-dihydrobenzo[f][1,4]oxazepin-5(2H)-one]",0.05
16,"CCn1cc(-c2cc(Cn3ccnc3C)cc3c2OCCN([C@H](c2cc(OC)ccn2)C2CC2)C3=O)c(C(F)(F)F)n1 [Example 60, (S)-4-(Cyclopropyl(4-methoxypyridin-2-yl)methyl)-9-(1-ethyl-3-(trifluoromethyl)-1H-pyrazol-4-yl)-7-((2-methyl-1H-imidazol-1-yl)methyl)-3,4-dihydrobenzo[f][1,4]oxazepin-5(2H)-one]",0.111
17,"COc1cnc2cccc(N3CCOc4c(cc(Cn5ccnc5)cc4-c4cn(C)nc4C(F)(F)F)C3=O)c2c1 [Example 70, 7-((1H-imidazol-1-yl)methyl)-4-(3-methoxyquinolin-5-yl)-9-(1-methyl-3-(trifluoromethyl)-1H-pyrazol-4-yl)-3,4-dihydrobenzo[f][1,4]oxazepin-5(2H)-one]",0.306
18,"COc1cc(Cn2cnc3c(-c4cn(C)nc4C(F)(F)F)cc(Cn4ccn(C)c4=N)cc3c2=O)cc(OC)c1 [Example 20, 3-(3,5-Dimethoxybenzyl)-6-((2-imino-3-methyl-2,3-dihydro-1H-imidazol-1-yl)methyl)-8-(1-methyl-3-(trifluoromethyl)-1H-pyrazol-4-yl)quinazolin-4(3H)-one]",0.63
19,"CCc1nccn1Cc1cc2c(c(-c3cn(CC)nc3C(F)(F)F)c1)OCCN([C@H](c1cc(OC)ccn1)C1CC1)C2=O [Example 61, (S)-4-(Cyclopropyl(4-methoxypyridin-2-yl)methyl)-7-((2-ethyl-1H-imidazol-1-yl)methyl)-9-(1-ethyl-3-(trifluoromethyl)-1H-pyrazol-4-yl)-3,4-dihydrobenzo[f][1,4]oxazepin-5(2H)-one]",0.158
20,"Cc1cc(C)nc(CN2CCOc3c(cc(Cn4ccnc4C)cc3-c3cccnc3C(F)(F)F)C2=O)c1 [Example 42, 4-((4,6-Dimethylpyridin-2-yl)methyl)-7-((2-methyl-1H-imidazol-1-yl)methyl)-9-(2-(trifluoromethyl)pyridin-3-yl)-3,4-dihydrobenzo[f][1,4]oxazepin-5(2H)-one]",0.282
21,"COc1cc(CN2CCOc3c(cc(Cn4ccn(C)c4=N)cc3-c3ccc(F)cc3C)C2=O)cc(OC)c1 [Example 3, 4-(3,5-Dimethoxybenzyl)-9-(4-fluoro-2-methylphenyl)-7-((2-imino-3-methyl-2,3-dihydro-1H-imidazol-1-yl)methyl)-3,4-dihydrobenzo[f][1,4]oxazepin-5(2H)-one]",0.019
22,"COc1ccnc([C@H](C)N2CCOc3c(cc(Cn4ccnc4C)cc3-c3cn(C)nc3C(F)(F)F)C2=O)c1 [Example 47, (S)-4-(1-(4-Methoxypyridin-2-yl)ethyl)-7-((2-methyl-1H-imidazol-1-yl)methyl)-9-(1-methyl-3-(trifluoromethyl)-1H-pyrazol-4-yl)-3,4-dihydrobenzo[f][1,4]oxazepin-5(2H)-one]",0.031
23,"Cc1ccnc(CN2CCOc3c(cc(Cn4ccnc4C)cc3-c3ccc(F)cc3C)C2=O)c1 [Example 25, 9-(4-Fluoro-2-methylphenyl)-7-((2-methyl-1H-imidazol-1-yl)methyl)-4-((4-methylpyridin-2-yl)methyl)-3,4-dihydrobenzo[f][1,4]oxazepin-5(2H)-one]",0.3
24,"Cc1cc(C)nc(CN2CCOc3c(cc(Cn4ccn(C)c4=N)cc3-c3cn(C)nc3C(F)(F)F)C2=O)c1 [Example 22, 4-((4,6-Dimethylpyridin-2-yl)methyl)-7-((2-imino-3-methyl-2,3-dihydro-1H-imidazol-1-yl)methyl)-9-(1-methyl-3-(trifluoromethyl)-1H-pyrazol-4-yl)-3,4-dihydrobenzo[f][1,4]oxazepin-5(2H)-one]",0.173
25,"CCOC(=O)c1cc(CC)cc2c(N3CCOc4c(cc(Cn5ccnc5)cc4-c4cn(C)nc4C(F)(F)F)C3=O)ccnc12 [Example 66, Ethyl 4-(7-((1H-imidazol-1-yl)methyl)-9-(1-methyl-3-(trifluoromethyl)-1H-pyrazol-4-yl)-5-oxo-2,3-dihydrobenzo[f][1,4]oxazepin-4(5H)-yl)-6-ethylquinoline-8-carboxylate]",0.772

# Source: patent US12577227B2, “WDR5 inhibitors and modulators” (Vanderbilt University, priority 2019, dated 2026)
